Laboratory results: patent publication US20080207616A1, “Quinoxalines as B Baf Inhhibitors” (AstraZeneca AB, priority 2004, published 2008)

Biological target: T1, human recombinant, purified wild type His-B-Raf protein kinase (Homo sapiens, UniProt P15056)
T1 construct: His
Test: B-Raf In Vitro ELISA Assay
Assay type: biochemical
Conditions: phosphorylation of MEK1; 2.5 nM B-Raf, 0.15 μM MEK1, 10 μM ATP; 1 hour preincubation at 25° C.
Description: B-Raf In Vitro ELISA Assay
Activity of human recombinant, purified wild type His-B-Raf protein kinase was determined in vitro using an enzyme-linked immunosorbent assay (ELISA) assay format, which measures phosphorylation of the B-Raf substrate, human recombinant, purified His-derived (detagged) MEK1. The reaction utilized 2.5 nM B-Raf, 0.15 μM MEK1 and 10 μM adenosine triphosphate (ATP) in 40 mM N-(2-Hydroxyethyl)piperazine-N′-(2-ethanesulfonic acid hemisodium salt (HEPES), […] 1,4-Dithio-DL-threitol (DTT), 10 mM MgCl2, 1 mM ethylenediaminetetraacetic acid (EDTA) and 0.2 M NaCl (1×HEPES buffer), with or without compound at various concentrations, in a total reaction volume of 25 μl in 384 well plates. B-Raf and compound were preincubated in 1×HEPES buffer for 1 hour at 25° C. Reactions were initiated with addition of MEK1 and ATP in 1× HEPES buffer and incubated at 25° C. for 50 minutes and reactions stopped by addition of 10 μl 75 mM EDTA (final concentration […]) in 1×HEPES buffer. 5 μl of the assay mix was then diluted 1:20 into 50 mM EDTA in 1×HEPES buffer, transferred to 384 well black high protein binding plates and incubated overnight at 4° C. […] Blue fluorescent product was detected at excitation 325 nm and emission 420 nm using a TECAN Ultra plate reader. Data was graphed and IC50s calculated using Excel Fit (Microsoft).

T1 sequence (P15056 whole entry): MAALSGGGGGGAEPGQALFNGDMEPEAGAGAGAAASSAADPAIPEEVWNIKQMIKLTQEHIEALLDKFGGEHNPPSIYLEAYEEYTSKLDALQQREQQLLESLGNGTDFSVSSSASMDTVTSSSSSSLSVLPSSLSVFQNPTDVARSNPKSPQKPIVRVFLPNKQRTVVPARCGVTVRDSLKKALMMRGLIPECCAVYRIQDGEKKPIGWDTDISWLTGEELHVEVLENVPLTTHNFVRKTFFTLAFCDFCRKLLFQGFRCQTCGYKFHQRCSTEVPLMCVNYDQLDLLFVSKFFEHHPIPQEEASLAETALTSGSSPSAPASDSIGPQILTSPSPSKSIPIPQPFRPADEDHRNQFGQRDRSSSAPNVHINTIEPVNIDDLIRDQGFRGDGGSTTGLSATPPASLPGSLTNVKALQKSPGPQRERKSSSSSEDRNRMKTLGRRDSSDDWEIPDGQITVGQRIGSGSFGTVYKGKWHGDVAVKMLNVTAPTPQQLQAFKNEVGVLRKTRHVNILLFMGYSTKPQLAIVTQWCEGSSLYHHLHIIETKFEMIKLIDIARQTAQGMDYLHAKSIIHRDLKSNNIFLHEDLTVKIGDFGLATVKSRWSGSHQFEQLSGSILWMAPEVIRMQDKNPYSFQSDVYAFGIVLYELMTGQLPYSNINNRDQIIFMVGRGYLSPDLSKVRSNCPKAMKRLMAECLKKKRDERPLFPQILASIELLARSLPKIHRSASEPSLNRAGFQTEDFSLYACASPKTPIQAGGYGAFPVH

Row | SMILES | IC50 [nM]
1 | CCc1cccc(C(=O)Nc2ccc(C)c(NC(=O)c3ccc4nccnc4c3)c2)c1 [Example 11, N-{5-[(3-Ethylbenzoyl)amino]-2-methylphenyl}quinoxaline-6-carboxamide] | 742
2 | CCCOc1cccc(C(=O)Nc2ccc(C)c(NC(=O)c3ccc4nccnc4c3)c2)c1 [Example 12, N-{2-Methyl-5-[(3-propoxybenzoyl)amino]phenyl}quinoxaline-6-carboxamide] | 20
